According to US20210261636A1, “NEOANTIGENS EXPRESSED IN MULTIPLE MYELOMA AND THEIR USES” (Janssen Biotech, Inc., priority 2020, published 2021):

How the values were obtained:
CD8+ T cells = test: Exogenous autologous healthy donor restimulation assay, TNFα and IFNγ production by CD8+ T cells; format: cell-based, human; design: Frequency (TNFα+ IFNγ+ CD8 T cells): unit not given here; conditions: for Fold change (CD8+) vs. DMSO: maximum CD8+ T-cell response (TNFα and IFNγ); for Fold change (CD8+) vs. DMSO / Frequency (TNFα+ IFNγ+ CD8 T cells): donor independent, peptide pool 10 μg/mL, healthy donors; for Frequency (TNFα+ IFNγ+ CD8 T cells): maximum CD8+ T-cell response; for Immunogenic (yes/no): positive if CD8+ and/or CD4+ double positive TNFα/IFNγ frequency >=3-fold over DMSO and at least 0.01%
Description: (§1) Immunogenicity responses were measured by estimating TNFα IFNγ double positive cells in the CD4+ and/or CD8+ T-cell populations. A response is considered positive if TNFα IFNγ double positive fraction was greater than or equal to three-fold over unstimulated cells (DMSO negative control) with a minimum frequency >=0.01%. […]
(§2) Overlapping 15-mer peptides were designed to span each indicated neoantigen. Their ability to activate T cells was assessed using known methods, such as the assay defnied as exogenous autologous normal donor restimulation assay. The peptides were used as pools using TNFα and IFNγ production by CD8^+ and CD4^+ T cells as a readout. Maximum frequency of CD8^+TNFα^+IFNγ^+ and CD4^+TNFα^+IFNγ^+ T cells and maximum fold change over background for each pool of peptides were analyzed, which were calculated as the highest frequency of CD8^+ TNFα^+IFNγ^+ and CD4^+ TNFα^+IFNγ^+ T cells and resulting fold change across the normal donors evaluated for the peptide.
(§3) CD1c+Dendritic Cells (CD1c+DC) isolated from human healthy PBMCs were thawed using media (IMDM (Gibco) supplemented with glutamine, HEPES, 5% human serum (Sigma), and 1× Pen-Strep). DC cells were resuspended in media supplemented with IL-4 (Peprotech, 20 ng/mL) and GM-CSF (Gibco, 20 ng/mL), plated in 6 well microplates, and rested overnight at 37° C. and 5% CO2 incubator. The following day, DC cells were counted and plated in a 96 well round bottom microplate at a concentration of 30,000 viable cells per well. Lyophilized neoantigen peptide pools (15-mer peptides with 8-mer overlapping peptide sequences) were solubilized in 100% DMSO with a stock concentration of 20 mg/mL Neoantigen peptides pools were added to DCs for a final concentration of 10 μg/mL and rested for 2 hours at 37° C. and 5% CO2 incubator. CEF Peptide Pool “Plus” (Cellular Technologies, Ltd.) was utilized as a positive control (each viral peptide at a final concentration of 4 ug/ml) and DMSO at the same final concentration (0.05%) as the experimental peptides was utilized as a negative control. After 2 hours, DC cells were irradiated with 50 gray of ionizing radiation. Autologous CD3+ Pan-T cells isolated from human normal PBMCs were thawed using media. Following irradiation, autologous Pan-T cells were added to the irradiated DCs at 300,000 viable cells per well. Human IL-15 (Peprotech) was added to all wells at final concentration of 10 ng/ml. Plates were incubated at 37° C. and 5% CO2 incubator for a total of 12 days. Media was refreshed every 2-3 days with IL-15 (R&D System, 10 ng/mL final concentration) and IL-2 (R&D systems, 10 IU/mL final concentration).
(§4) On Day 11, cells were re-stimulated with identical experimental peptide pools or controls, at same concentration as peptide stimulation on Day 1. Protein Inhibitor Cocktail (eBioscience) was added to every well and plate was incubated overnight for 14-16 hours at 37° C. and 5% CO2 incubator. On Day 12, cells were stained for surface and intracellular flow cytometry analysis. The cells were washed with PBS and stained with Live/Dead Fixable Aqua Dead Cell stain (Thermo-Fisher). Following the live/dead stain, cells were blocked using Biotin-Free Fc Receptor Blocker (Accurate Chemical & Scientific Corp). Extracellular cellular flow panel (1 μL/antibody per well in 50 μL) consisted of CD3 PerCP-Cy5.5 (Biolegend), CD4 BV421 (Biolegend), and CD8 APC-Cy7 (Biolegend). After extracellular staining, cells were fixed and permeabilized using Foxp3/Transcription Factor Staining Buffer Set (eBioscience) and stained for intracellular proteins (1:50 dilution) using TNFα FITC (R&D Systems) and IFNγ BV785 (Biolegend). Cells were washed and resuspended in stain buffer, analyzed, and recorded in a BD Celesta flow cytometer.
(§5) Flow cytometry analysis was conducted on FlowJo v10.6 software. Cells were gated on live, singlet, CD3+, CD4+ and CD8+ T cells. The CD8+ and CD4+ T cells were analyzed for TNFα and IFNγ expression. […]

CD4+ T cells = test: Exogenous autologous healthy donor restimulation assay, TNFα and IFNγ production by CD4+ T cells; format: cell-based, human; design: Frequency (TNFα+ IFNγ+ CD4 T cells): unit not given here; conditions: donor independent, peptide pool 10 μg/mL, healthy donors; for Fold change (CD4+) vs. DMSO: maximum CD4+ T-cell response (TNFα and IFNγ); for Frequency (TNFα+ IFNγ+ CD4 T cells): maximum CD4+ T-cell response
Description: as §1, §2, §3, §4, §5

Substance	Fold change (CD8+) vs. DMSO (CD8+ T cells)	Frequency (TNFα+ IFNγ+ CD8 T cells) (CD8+ T cells)	Immunogenic (yes/no) (CD8+ T cells)	Fold change (CD4+) vs. DMSO (CD4+ T cells)	Frequency (TNFα+ IFNγ+ CD4 T cells) (CD4+ T cells)
NASLHEVKDFFVPFPLPLLHLTSLKRNKLFN [AS110, alternative splicing, CCDC88A]	228.56	4.21	Yes	36.021	0.21
VAPSGLYYCG [FUS34, gene fusion CLN6-> CALML4]	8.7	0.013	Yes	8.33	0.015
AGDVLFIPGISLKVHKVQHSKVINICN [AS55, alternative splicing, TYW5]	96.05	0.17	Yes	27.71	0.042
WLLRTWERADSGL [AS123, alternative splicing, PCNX3]	5.371	0.046	No	2.25	0.05
FALMASLGIPQTMAA [FUS56, gene fusion ZNF772-> VN1R1]	2.73	0.007	Yes	115.03	0.75
MEPTTKRGPGGTMVSAAAPS [FUS52, gene fusion SELPLG-> TMEM119]	46.95	2.09	Yes	6.831	0.02
GEPGEDAGIGRPEEREREEEMADQ [AS135, alternative splicing, ZBP1]	2.68	0.092	No	3.73	0.03
CRERGLQEAEGDVAAL [FUS40, gene fusion KLF2-> TPM4]	18.3	0.43	Yes	1.26	0.024
NRVTALTQN [FUS35, gene fusion TMED3-> KIAA1024]	3.24	0.049	Yes	2.28	0.019
DVAVICSGRRSARDP [FUS4, gene fusion CD5L-> FCRL1]	3.1	0.04	No	7.13	0.029
FLQKHGNENTVLMLETLSEIRYGYVSCVCCPLLSPYGRCLN [AS26, alternative splicing, AGFG1]	84.36	0.75	Yes	5.7	0.097
FU524 (SGLEAIQRGYETFYSE)	259.11	0.48	Yes	3.13	0.014
DLFDEFDNSRLVSRSWFFFYLRNKWNLALGF [AS24, alternative splicing, ST3GAL6]	1300	0.13	Yes	613.88	3.14
QIRVPSYSDEG [AS114, alternative splicing, CNTN5]	7.6	0.14	Yes	2.05	0.02
PQEEVPFRSITTELFPSMC [FUS27, gene fusion TBCEL-> TECTA]	3.38	0.009	Yes	3.3	0.038
SATTRSITGQDILSLEKERR [AS17, alternative splicing, DCC]	14.05	0.13	Yes	7.078	0.028
GRAGQGGGMISVSQEFIK [FUS7, gene fusion FAM98A-> LOC105374454]	3.04	0.093	Yes	17.18	0.21
LTALLLLASTPTP [AS18, alternative splicing, FCRLB]	7.33	0.082	Yes	12.922	0.006
LQAILQPGNFILVNEI [AS5, alternative splicing, C3orf79]	4.64	0.068	Yes	19.14	0.14
CEIMPLQSYILL [AS37, alternative splicing, FAM13A]	17.37	0.32	Yes	576.132	0.21
